Where two headings read alike, the source gives them in different places.
Tests used:
[1] = biological target: recombinant GluN1/GluN2A receptors (Homo sapiens, UniProt Q05586+Q12879); experiment: Two-electrode voltage clamp of oocytes, channel block of NMDA-induced current; assay type: cell-based; details: for steady-state channel block of NMDA current: 10 μM (equimolar), Vh −70 mV; for IC50: steady-state, short-term drug addition, holding potential −70 mV, nominal absence of extracellular Mg2+, read-out: IC50 of inhibiting NMDA-induced current
Protocol: […] Recordings were performed with an Oocyte Clamp OC-725b amplifier (Warner Instrument Corporation, Hamden, CT) using MacLab version 3.5 software (AD Instruments, Milford, MA) at room temperature. […] Both electrodes were filled with 3 M KCl. A solution containing 90 mM NaCl, 1 mM KCl, 10 mM HEPES, 1.5 mM BaCl2, and 10–100 μM glycine, pH 7.5 was used to continuously superfuse the oocytes. Barium, rather than calcium, was used as the divalent cation in order to minimize secondary activation of Ca^2+-activated Cl^− current. In some experiments, 1.2 mM MgCl2 was added to the bath solution. Drugs were dissolved in frog Ringer’s solution and applied by superfusion at a 2 ml/min flow rate. In some cases, to achieve relatively rapid solution exchange, we used an array of pipettes similar to the “sewer pipe” system used in patch-clamp recording. Perfusion artifacts were digitally removed from the traces.

[2] = biological target: GluN1(N616R)/GluN2A channels (Homo sapiens, UniProt Q05586+Q12879, N616R); experiment: Oocyte voltage clamp, redox effect on memantine binding site mutant; assay type: cell-based; details: for effect of GluN1(N616R) mutation on inhibition of current via S-nitrosylation: 200 µM
Protocol: (§1) Two-electrode voltage clamp recordings at −60 or −70 mV were made on oocytes in frog Ringer’s solution two to seven days after injection of NMDAR subunits. Recordings were performed with an Oocyte Clamp OC-725b amplifier (Warner Instrument Corporation, Hamden, CT) using MacLab version 3.5 software (AD Instruments, Milford, MA) at room temperature. […] Both electrodes were filled with 3 M KCl. A solution containing 90 mM NaCl, 1 mM KCl, 10 mM HEPES, 1.5 mM BaCl2, and 10–100 μM glycine, pH 7.5 was used to continuously superfuse the oocytes. Barium, rather than calcium, was used as the divalent cation in order to minimize secondary activation of Ca^2+-activated Cl^− current. In some experiments, 1.2 mM MgCl2 was added to the bath solution. Drugs were dissolved in frog Ringer’s solution and applied by superfusion at a 2 ml/min flow rate. In some cases, to achieve relatively rapid solution exchange, we used an array of pipettes similar to the “sewer pipe” system used in patch-clamp recording. Perfusion artifacts were digitally removed from the traces.
Mutant NMDAR subunits were prepared using the Chameleon^TM double-stranded site-directed mutagenesis kit (Stratagene) according to the manufacturer’s instructions. The entire coding region was sequenced to verify the mutation.

[3] = biological target: NMDA-evoked currents in primary rat cortical neurons (Rattus norvegicus, UniProt P35439); experiment: Whole-cell patch clamp of NMDA-evoked currents in primary rat cortical neurons; assay type: cell-based; details: 5 μM, −75 mV and +30 mV
LTP in hippocampal CA1 = experiment: LTP in hippocampal slices by field recordings; assay type: cell-based; details: 10 μM, high-frequency burst, rat hippocampal slices
[4] = system: spontaneously hypertensive rats (SHR); experiment: tMCAO/R focal cerebral ischemia, infarct size by TTC staining; assay type: in vivo, rat; details: for histological protection (infarct size) at equimolar dose: MFD of NitroMemantine (65.8 μmol/kg loading, 3.29 μmol/kg maintenance); for histological protection (infarct, TTC staining): loading i.p. 2-h post occlusion: memantine 90.3 μmol/kg, NitroMemantine 65.8 μmol/kg, maintenance 12 h later, sacrificed at 24 h
Protocol: Because of their known propensity to stroke, similar to human patients with hypertension, we used spontaneous hypertensive rats (SHR, Harlan) to induce tMCAO/R with the intraluminal suture method. Male 200–300 g SHR were anesthetized with 3% isoflurane in 30% oxygen/70% nitrous oxide using an anesthetic vaporizer and flowmeter. Body temperature was maintained at 37 °C with a homeothermic temperature system. A laser Doppler monitor was used to monitor relative cerebral blood flow (rCBF) during the surgical procedure and recovery. rCBF measurements were made immediately after anesthesia, after occlusion of the MCA, just before, and immediately after withdrawal of the suture to initiate reperfusion. To initiate a stroke, a midline incision was made to expose the right common carotid, external carotid, and internal carotid arteries. The occipital artery branches of the external carotid artery were isolated and along with the terminal lingual and maxillary artery branches coagulated with an electrocautery unit. The internal carotid artery was isolated and carefully separated from the adjacent vagus nerve. The pterygopalatine artery was ligated close to its origin, two loosely tied sutures placed around the external carotid artery stump, and a microaneurysm clip applied to the external carotid artery near its bifurcation with the internal carotid artery. A small puncture opening was made in the external carotid artery, a monofilament (intraluminal suture) inserted through the opening, and the sutures tightened around the lumen containing the filament. The microaneurysm clip was removed from the external carotid artery and the monofilament gently advanced from the lumen of the external carotid artery into the internal carotid artery for a distance of ~19 to 20 mm beyond the bifurcation of the common carotid artery until the blood flow dropped (≥80% reduction by rCBF measurement). The suture around the external carotid artery stump was tightened to prevent bleeding. After 2 h, sutures were removed, the filament withdrawn and the incision sutured removed, with rCBF recovering at least 75% at reperfusion. Just prior to reperfusion, rats were administered memantine, NitroMemantine, or memantine-OH via i.p. injection in saline vehicle or an equivalent volume of vehicle alone. […] Maintenance doses (4.63 μmol/kg of memantine and 3.29 μmol/kg of NitroMemantine, equivalent to 1 mg/kg or each) were administered 12 h after the loading dose. […] In subsequent experiments, equimolar memantine, NitroMemantine YQW-036, or memantine-OH was used using the lower NitroMemantine dose described above. The rodents were sacrificed 24-h post occlusion, and the size of brain infarct was evaluated histologically by 2,3,5-triphenyl-2H-tetrazolium chloride (TTC) staining.

[5] = system: spontaneously hypertensive rats (SHR); experiment: Neurological/behavioral score after tMCAO/R; assay type: in vivo, rat; details: same doses as histology (memantine 90.3, NitroMemantine 65.8 μmol/kg loading), 24-h post stroke
Source text: Each adult animal underwent a neurologic evaluation[51] immediately after filament removal and again 1 day after reperfusion (prior to sacrifice). Each animal was assigned an objective behavioral score of 0–4: 0 representing no observable neurological deficit; 1 failure to extend the left forepaw; 2 circling to the left; 3 falling to the left; 4 cannot walk spontaneously. The scores obtained 24-h post stroke were averaged for each time point of each treatment group and presented as the neurological score.

SNO-GluN1 and SNO-Drp1 = experiment: Biotin switch assay of S-nitrosylated proteins in brain after stroke; assay type: in vivo, rat; details: SHR, loading dose 2-h post occlusion, sacrificed 90 min thereafter
Protocol: Analysis of S-nitrosylation of NMDA receptors in rat brain was performed by the biotin switch assay, as previously described[48][49]. Free thiols in tissue lysates were blocked with methyl-methanethiosulfonate. Proteins were then precipitated with acetone and resuspended in HEN buffer (250 mM HEPES, pH 7.4, 1 mM EDTA, 0.1 mM neocuproine) plus 1% sodium dodecyl sulfate. Ascorbate was used to selectively reduce nitrosothiols in order to reform free thiol groups, which were subsequently biotinylated using 1 mM biotin-HPDP (Pierce, Rockford, IL). Parallel reactions were performed without ascorbate as a control to ensure specificity of the biotinylated bands. Biotinylated proteins were captured on streptavidin-agarose beads and analyzed by immunoblotting.

Aqueous solubility = assay type: physicochemical
[6] = system: spontaneously hypertensive rats (SHR); experiment: Morris water maze; assay type: in vivo, rat; details: neuroprotective doses: 65.8 μmol/kg loading i.p., 3.29 μmol/kg every 12 h
Protocol: Adult male spontaneously hypertensive rats (SHR) were treated with either PBS or NitroMemantine (65.8 μmol/kg loading dose, i.p., followed by a 3.29 μmol/kg maintenance dose every 12 h). Each group was comprised of five rats (n = 5). Treatment for both groups commenced 48 h prior to the first day of testing. Both the treatment and water-maze testing were conducted in a blinded fashion. The water maze consisted of a circular pool 150 cm in diameter and 85 cm deep. The pool was filled to cover a moveable platform, black in color, by 1 cm of water. The water was made opaque via the addition of black paint and maintained at room temperature (20–23 °C) for the duration of the five days of testing. A white pool with black water allowed the video camera to successfully track the white rats with maximum contrast. On day 1, the rats were placed in the pool with no platform for 60 s of acclimation. Days 2 through 5 were used for testing. Starting on day 2 and continuing to day 5, rats were trained for 24 total trials (six trials/day) to locate and reach the submerged platform. The platform was kept in the same location for all trials in each session (day), but changed from session to session in a pre-determined order, yielding four unique locations in all. In addition, there were four possible release locations (the four cardinal compass directions at the pool’s perimeter). […]

GluN1/GluN2A NMDARs = experiment: Oocyte voltage clamp, redox (S-nitrosylation) mediated inhibition of NMDA-evoked current; assay type: cell-based
Protocol: as §1

developing cerebrocortex = experiment: Cerebrocortical apoptosis by TUNEL in neonatal rats; assay type: in vivo; details: P7 rat pups, loading dose, 24 h later
[7] = system: NMDAR-mediated component of the EPSC; experiment: Evoked EPSCs in hippocampal autapses, whole-cell recording; assay type: cell-based, rat
[8] = system: spontaneously hypertensive rats (SHR); experiment: Physiological parameters during stroke; assay type: in vivo, rat; details: loading dose, n = 18 SHR
[9] = system: NMDAR-operated ion channel; details: cited from earlier work
[10] = set-up: method as in PMID 19915593; details: memantine 90.3 μmol/kg loading, 4.63 μmol/kg maintenance; cited from earlier work

GluN1(N616R)/GluN2A channels, sequence (Q12879 23-1464, other chains not shown): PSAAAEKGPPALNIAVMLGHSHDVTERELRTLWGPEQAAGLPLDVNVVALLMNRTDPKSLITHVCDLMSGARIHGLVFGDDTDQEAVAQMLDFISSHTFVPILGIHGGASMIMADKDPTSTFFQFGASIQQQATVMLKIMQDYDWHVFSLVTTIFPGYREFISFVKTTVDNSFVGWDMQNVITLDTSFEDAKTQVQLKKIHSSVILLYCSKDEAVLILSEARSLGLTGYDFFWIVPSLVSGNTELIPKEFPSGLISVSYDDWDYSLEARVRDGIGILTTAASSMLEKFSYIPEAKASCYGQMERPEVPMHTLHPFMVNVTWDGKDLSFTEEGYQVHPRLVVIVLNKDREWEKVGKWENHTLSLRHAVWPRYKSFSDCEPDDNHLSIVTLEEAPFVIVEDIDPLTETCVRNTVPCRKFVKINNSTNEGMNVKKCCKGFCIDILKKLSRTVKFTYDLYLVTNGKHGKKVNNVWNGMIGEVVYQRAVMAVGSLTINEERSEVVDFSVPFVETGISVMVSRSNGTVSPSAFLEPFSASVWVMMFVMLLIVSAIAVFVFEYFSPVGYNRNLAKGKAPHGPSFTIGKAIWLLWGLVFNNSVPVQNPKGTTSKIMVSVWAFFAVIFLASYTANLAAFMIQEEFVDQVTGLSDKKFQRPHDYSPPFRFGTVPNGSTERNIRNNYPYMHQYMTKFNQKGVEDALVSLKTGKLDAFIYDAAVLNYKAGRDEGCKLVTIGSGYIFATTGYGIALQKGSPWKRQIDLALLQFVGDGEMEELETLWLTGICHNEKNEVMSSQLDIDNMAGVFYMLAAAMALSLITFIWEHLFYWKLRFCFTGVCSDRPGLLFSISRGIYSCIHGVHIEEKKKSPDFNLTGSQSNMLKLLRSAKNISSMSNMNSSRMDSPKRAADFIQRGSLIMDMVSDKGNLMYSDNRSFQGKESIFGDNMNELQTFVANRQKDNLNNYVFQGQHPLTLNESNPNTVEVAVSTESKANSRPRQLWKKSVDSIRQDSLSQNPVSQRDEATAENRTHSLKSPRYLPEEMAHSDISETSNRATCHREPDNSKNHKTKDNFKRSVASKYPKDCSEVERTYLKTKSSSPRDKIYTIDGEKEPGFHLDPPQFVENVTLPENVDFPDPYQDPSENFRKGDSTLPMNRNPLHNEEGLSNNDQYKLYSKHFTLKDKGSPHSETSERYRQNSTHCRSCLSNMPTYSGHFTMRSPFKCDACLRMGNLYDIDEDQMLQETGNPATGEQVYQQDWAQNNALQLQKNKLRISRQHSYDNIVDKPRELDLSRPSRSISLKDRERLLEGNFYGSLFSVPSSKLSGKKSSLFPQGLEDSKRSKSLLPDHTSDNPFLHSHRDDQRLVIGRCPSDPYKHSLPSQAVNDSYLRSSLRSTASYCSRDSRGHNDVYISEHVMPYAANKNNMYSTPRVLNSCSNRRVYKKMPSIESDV
recombinant GluN1/GluN2A receptors, sequence (Q12879 23-1464, other chains not shown): as above

## CC12CC3(C)CC(N)(C1)CC(O[N+](=O)[O-])(C2)C3 [YQW-035]
[1]
  steady-state channel block of NMDA current: less channel block than memantine but more than amantadine
  IC50: 6300 nM
[2]
  effect of GluN1(N616R) mutation on inhibition of current via S-nitrosylation: eliminated inhibition

## CCC12CC3(N)CC(CC)(C1)CC(O[N+](=O)[O-])(C3)C2 [YQW-036]
[3]
  blockade of NMDA-evoked current, voltage dependence: approximately equivalent degree of blockade at both –75 mV and less blockade at +30 mV
LTP in hippocampal CA1
  effect on LTP induction: did not inhibit LTP
[1]
  steady-state channel block of NMDA current: approximately the same degree as memantine
  IC50: 2400 nM
[1]; 10 µM, 1.2 mM Mg2+, NMDA 100 µM, holding potential −40 mV
  inhibition of NMDA-evoked current in the presence of extracellular Mg2+: inhibited
[4]
  histological protection (infarct size) at equimolar dose: significant benefit
  histological protection (infarct, TTC staining): protected to a greater extent than memantine
[4]; listed as NitroMemantine
  histological protection (infarct, TTC staining): offer histological protection
[5]
  neurological/behavioral score: showed a protective effect
[2]; 100 μM
  redox-mediated activity on GluN1(N616R) mutant: abrogated
SNO-GluN1 and SNO-Drp1
  S-nitrosylation of Drp1 (SNO-Drp1): not significantly affected
  S-nitrosylation of the GluN1 subunit (SNO-GluN1), ipsilateral to stroke: significant increase
Aqueous solubility
  aqueous solubility: lower solubility in aqueous solution
[6]
  Morris water maze performance: not affected
GluN1/GluN2A NMDARs; 100 μM, Vh −60 mV
  inhibition of NMDA-evoked current under conditions used to observe S-nitrosylation: inhibited NMDA-evoked current
GluN1/GluN2A NMDARs; prior addition of MTSEA or mutation of redox-active cysteines in the NMDAR
  prolonged inhibitory effect after prior MTSEA or mutation of redox-active cysteines: largely abrogated
Developing cerebrocortex
  cerebrocortical neuronal apoptosis (TUNEL): do not cause
[7]; 10 μM
  change of EPSC blockade with repeated electrical stimulation (pulses 1–10): did not significantly increase
[7]; 10 μM, 20 μM CNQX present
  block of NMDAR-mediated component of the EPSC: blocked to a lesser extent
[8]
  physiological parameters (temperatures, blood pressure, metabolic panel): not significantly affected

## C[C@]12N[C@H](Cc3ccccc31)c1ccccc12 [MK-801, reference compound]
LTP in hippocampal CA1
  effect on LTP induction: completely inhibited LTP induction

## NC12CC3CC(CC(C3)C1)C2 [amantadine, reference compound]
[1]
  steady-state channel block of NMDA current: inhibited less NMDA current at steady state than equimolar memantine

## N[C@@H](CSN=O)C(=O)O [SNOC, S-nitrosocysteine, reference compound]
[2]
  effect of GluN1(N616R) mutation on inhibition of current via S-nitrosylation: did not affect inhibition

## CCCC12CC3(N)CC(CCC)(C1)CC(O[N+](=O)[O-])(C3)C2 [YQW-037]
Aqueous solubility
  aqueous solubility: cannot be dissolved in aqueous solutions

## N[C@H](CCCP(=O)(O)O)C(=O)O [D-AP5, (2R)-amino-5-phosphonopentanoate]
[7]; 50 μM, control
  block of NMDAR component of the EPSC: completely blocked

## CC12CC3CC(C)(C1)CC(N)(C3)C2 [memantine]
[3]
  blockade of NMDA-evoked current, voltage dependence: approximately equivalent degree of blockade at both –75 mV and less blockade at +30 mV
[4]
  histological protection (infarct size) at equimolar dose: no significant protection
  histological protection (infarct, TTC staining): offer histological protection
[9]
  IC50: 500 to 1000 nM
[10]
  concentration at the mouth of the NMDAR-associated ion channel: 5 to 10 µM
Developing cerebrocortex
  cerebrocortical neuronal apoptosis (TUNEL): do not cause
[7]
  block of NMDAR-mediated component of the EPSC: blocks neurotransmission to a greater degree than NitroMemantine
  change of EPSC blockade with repeated electrical stimulation (pulses 1–10): use-dependent
[8]
  physiological parameters (temperatures, blood pressure, metabolic panel): not significantly affected

From article PMC4609936, “Pharmacologically targeted NMDA receptor antagonism by NitroMemantine for cerebrovascular disease” (Scientific Reports, 2015)
